Data on eight compounds can be found in patent US20230374025A1, “FGFR INHIBITOR COMPOUND AND USE THEREOF” (SHENZHEN KANGSU PHARMACEUTICAL TECHNOLOGY CO., LTD., priority 2021, published 2023).

What all share (assay type): biochemical
One assay concerns the target T1, FGFR1 V561M (Homo sapiens, UniProt P11362, V561M).
T1 construct: purchased Signalchem F04-13G
Briefly: Assay I: inhibitory activity against FGFR mutants (HTRF KinEASE-TK). As to conditions: ATP 5 μM, substrate TK 1 μM. In a few lines:
(§1)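 HTRF KinEASE-TK on FGFR mutant kinases in buffer with 5 mM MgCl2, 1 mM DTT; compound 4-fold serial dilutions (2 mM DMSO start) preincubated 10 min, then TK-substrate-biotin/ATP, 50 min at room temperature. 665/615 nm ratio converted to % inhibition; IC50 from four-parameter fit.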
In general terms: TR-FRET usually uses a lanthanide donor and a delayed reading to cut background.

For a further assay, the target named is T2, FGFR2 V564F (Homo sapiens, UniProt P21802, V564F).
T2 construct: purchased Signalchem F05-12FG
T2 sequence (P21802 22-821 V564F): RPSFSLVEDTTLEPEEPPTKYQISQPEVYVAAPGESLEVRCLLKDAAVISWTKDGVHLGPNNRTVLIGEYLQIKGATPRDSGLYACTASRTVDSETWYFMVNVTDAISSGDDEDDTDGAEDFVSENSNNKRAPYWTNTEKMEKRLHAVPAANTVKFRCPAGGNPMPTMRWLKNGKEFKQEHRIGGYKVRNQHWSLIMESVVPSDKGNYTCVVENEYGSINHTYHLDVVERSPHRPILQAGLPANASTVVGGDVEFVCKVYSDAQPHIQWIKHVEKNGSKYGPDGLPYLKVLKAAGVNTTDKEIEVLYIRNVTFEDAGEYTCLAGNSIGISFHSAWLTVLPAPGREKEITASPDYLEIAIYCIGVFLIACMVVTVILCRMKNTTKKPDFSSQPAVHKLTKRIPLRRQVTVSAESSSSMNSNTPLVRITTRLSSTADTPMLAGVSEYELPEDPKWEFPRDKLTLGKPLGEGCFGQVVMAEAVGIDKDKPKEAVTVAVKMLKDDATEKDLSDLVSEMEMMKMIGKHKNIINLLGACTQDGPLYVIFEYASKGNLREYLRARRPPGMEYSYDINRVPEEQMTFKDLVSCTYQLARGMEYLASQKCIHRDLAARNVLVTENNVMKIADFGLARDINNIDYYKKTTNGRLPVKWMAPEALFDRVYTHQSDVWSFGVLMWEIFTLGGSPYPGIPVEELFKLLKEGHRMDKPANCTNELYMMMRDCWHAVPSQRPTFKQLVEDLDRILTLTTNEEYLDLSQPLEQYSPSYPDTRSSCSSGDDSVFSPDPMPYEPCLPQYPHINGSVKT
The description is as above. As to conditions: ATP 10 μM, substrate TK 1 μM. In short, it runs like this: as §1

A further assay deals with T3, FGFR3 V555M (Homo sapiens, UniProt P22607, V555M).
T3 construct: purchased Signalchem F06-12GG
T3 sequence (P22607 397-806 V555M limits assumed): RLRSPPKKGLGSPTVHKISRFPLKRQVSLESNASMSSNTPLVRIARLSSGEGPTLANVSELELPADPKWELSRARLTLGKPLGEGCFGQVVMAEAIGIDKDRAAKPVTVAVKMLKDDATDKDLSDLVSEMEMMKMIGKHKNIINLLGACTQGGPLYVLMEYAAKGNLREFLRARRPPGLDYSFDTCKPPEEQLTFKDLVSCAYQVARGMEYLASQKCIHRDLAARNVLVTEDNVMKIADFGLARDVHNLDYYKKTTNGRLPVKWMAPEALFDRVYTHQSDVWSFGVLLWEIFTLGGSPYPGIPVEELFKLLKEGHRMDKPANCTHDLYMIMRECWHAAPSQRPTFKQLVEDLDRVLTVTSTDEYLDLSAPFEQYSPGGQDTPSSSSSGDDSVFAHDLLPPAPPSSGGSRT
The assay is described as above. As to conditions: ATP 20 μM, substrate TK 1 μM. In a few lines: as §1

The target in a further assay is T4, VEGFR2 (Homo sapiens, UniProt P35968).
T4 construct: purchased Carna 08-191
T4 sequence (P35968 20-1356): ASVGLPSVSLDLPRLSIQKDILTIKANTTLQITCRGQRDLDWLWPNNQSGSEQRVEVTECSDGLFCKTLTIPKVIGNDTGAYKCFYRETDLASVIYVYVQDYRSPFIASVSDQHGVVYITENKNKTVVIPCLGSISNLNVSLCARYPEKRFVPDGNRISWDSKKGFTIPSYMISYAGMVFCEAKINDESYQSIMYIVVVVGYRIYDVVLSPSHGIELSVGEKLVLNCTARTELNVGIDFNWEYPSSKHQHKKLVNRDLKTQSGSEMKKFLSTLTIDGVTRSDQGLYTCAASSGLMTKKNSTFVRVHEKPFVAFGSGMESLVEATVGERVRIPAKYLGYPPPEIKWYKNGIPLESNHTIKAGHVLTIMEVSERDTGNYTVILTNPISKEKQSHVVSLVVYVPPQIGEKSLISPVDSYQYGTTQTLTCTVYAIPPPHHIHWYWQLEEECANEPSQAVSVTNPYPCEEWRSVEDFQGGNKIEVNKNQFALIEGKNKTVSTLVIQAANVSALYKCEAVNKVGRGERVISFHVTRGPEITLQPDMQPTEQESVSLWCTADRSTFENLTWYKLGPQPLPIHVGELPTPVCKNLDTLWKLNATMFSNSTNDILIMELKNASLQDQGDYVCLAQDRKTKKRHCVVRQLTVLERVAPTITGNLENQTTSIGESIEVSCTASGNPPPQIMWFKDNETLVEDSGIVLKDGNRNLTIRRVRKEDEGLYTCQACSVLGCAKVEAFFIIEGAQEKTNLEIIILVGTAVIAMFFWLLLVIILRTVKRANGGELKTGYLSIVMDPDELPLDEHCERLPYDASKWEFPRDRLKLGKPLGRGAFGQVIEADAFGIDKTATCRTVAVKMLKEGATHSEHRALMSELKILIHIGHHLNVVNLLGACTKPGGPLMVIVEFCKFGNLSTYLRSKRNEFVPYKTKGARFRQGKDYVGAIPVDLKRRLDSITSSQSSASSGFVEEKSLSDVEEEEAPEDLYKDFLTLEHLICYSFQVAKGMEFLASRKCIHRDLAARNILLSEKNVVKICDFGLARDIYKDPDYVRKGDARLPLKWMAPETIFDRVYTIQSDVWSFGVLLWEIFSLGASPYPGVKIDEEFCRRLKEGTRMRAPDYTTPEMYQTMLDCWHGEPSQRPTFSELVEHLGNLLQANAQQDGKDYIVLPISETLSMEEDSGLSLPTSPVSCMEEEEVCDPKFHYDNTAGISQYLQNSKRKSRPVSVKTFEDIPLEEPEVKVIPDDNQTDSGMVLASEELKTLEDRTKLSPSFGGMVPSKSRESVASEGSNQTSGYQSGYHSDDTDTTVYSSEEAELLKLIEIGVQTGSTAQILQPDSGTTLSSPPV
Briefly: Assay I: VEGFR2 kinase inhibition (HTRF KinEASE-TK). As to conditions: ATP 5 μM, substrate TK 1 μM. In a few lines:
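HTRF KinEASE-TK assay: kinase preincubated 10 min at room temperature with 4-fold compound dilutions (2 mM DMSO starting stock), then TK-substrate-biotin/ATP added for 50 min at room temperature in buffer with 5 mM MgCl2, 1 mM DTT. 665/615 nm ratio converted to % inhibition; IC50 by four-parameter fit.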

The next assay deals with T5, FGFR1 (Homo sapiens, UniProt P11362).
T5 construct: purchased Carna 08-133
T5 sequence (P11362 22-822): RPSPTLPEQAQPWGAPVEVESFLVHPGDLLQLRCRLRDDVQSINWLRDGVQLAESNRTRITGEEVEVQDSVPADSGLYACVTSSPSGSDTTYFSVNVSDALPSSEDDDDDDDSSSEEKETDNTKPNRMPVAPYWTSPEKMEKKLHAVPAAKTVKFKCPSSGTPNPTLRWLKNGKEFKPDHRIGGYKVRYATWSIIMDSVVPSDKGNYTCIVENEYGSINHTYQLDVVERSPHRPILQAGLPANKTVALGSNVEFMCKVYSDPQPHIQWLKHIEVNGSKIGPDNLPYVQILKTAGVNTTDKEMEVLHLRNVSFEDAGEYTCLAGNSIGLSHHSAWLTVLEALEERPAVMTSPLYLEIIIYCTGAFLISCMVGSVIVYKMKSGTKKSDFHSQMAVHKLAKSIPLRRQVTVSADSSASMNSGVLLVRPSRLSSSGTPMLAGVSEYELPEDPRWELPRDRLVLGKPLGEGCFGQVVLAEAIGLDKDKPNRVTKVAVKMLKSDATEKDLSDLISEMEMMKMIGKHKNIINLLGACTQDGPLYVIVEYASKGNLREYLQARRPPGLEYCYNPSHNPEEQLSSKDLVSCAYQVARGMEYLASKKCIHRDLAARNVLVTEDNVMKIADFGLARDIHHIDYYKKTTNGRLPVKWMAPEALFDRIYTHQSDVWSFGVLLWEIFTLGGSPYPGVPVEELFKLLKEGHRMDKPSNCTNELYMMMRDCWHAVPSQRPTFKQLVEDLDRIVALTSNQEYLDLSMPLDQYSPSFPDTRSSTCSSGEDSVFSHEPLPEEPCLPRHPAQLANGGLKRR
Briefly: Assay II: inhibitory activity against wild-type FGFR (HTRF KinEASE-TK). The note with it: ATP 50 μM, substrate TK 1 μM. On the procedure:
(§2) Assay II: Determination of Inhibitory Activity Against Wild-Type FGFR
(§3) 1. Reagents and Equipment
(§4) 2. Experimental Steps PGP-5T
(§5) 2.1 Preparation of 1× Kinase Reaction Buffer:
(§6) 1× Kinase reaction buffer was formulated with 1× volume of 5× kinase reaction buffer and 4× volume of water; 5 mM MgCl2; and 1 mM DTT.
(§7) 2.3 Screening of Compounds:
(§8) 1. Diluting a compound 4-fold in a dilution plate with DMSO, with a starting compound concentration of 2 mM.
(§9) 2. Diluting the compound 40-fold into 1× kinase reaction buffer and shaking it on a shaker for 20 minutes.
(§10) 3. Formulating 2×FGFR1/FGFR2/FGFR3 with 1× of enzyme reaction buffer.
(§11) 4. Adding 2 μl FGFR1/FGFR2/FGFR3 kinase (formulated in step 3) to each well of the reaction plate.
(§12) 5. Adding 1 μl of the compound diluted in buffer to each well, sealing the plate with a sealing membrane and centrifuging the plate at 1000 g for 30 seconds and leaving it at room temperature for 10 minutes.
(§13) 6. Formulating 2.5×TK-substrate-biotin and ATP mixture with 1× enzyme reaction buffer and add 2 μl of K-substrate-biotin/ATP mixture to the reaction plate.
(§14) 7. Sealing the plate with a sealing membrane and centrifuging the plate at 1000 g for 30 seconds and allowing it to react at room temperature for 50 minutes.
(§15) 8. Formulating 4× Sa-XL 665 (250 nM) with HTRF assay buffer.
(§16) 9. Adding 5 μl Sa-XL 665 and 5 μl TK-Antibody-Cryptate to each well, centrifuging it at 1000 g for 30 seconds, and allowing it to react for 1 hour at room temperature.
(§17) 10. Reading fluorescence signals at 615 nm (Cryptate) and 665 nm (XL665) with Biotek.
(§18) 3.1 Calculation of the ratio for each well: the ratio was calculated as 665/615 nm.
(§19) 3.3 Calculation of IC50 and plotting of inhibition curves for the compounds.
(§20) The IC50 (half inhibition concentration) of a compound was obtained using the following non-linear fitting equation, wherein data analysis was performed using Graphpad 6.0 software.
(§21) Y=Bottom+(Top−Bottom)/(1+10^((Log IC50−X)*Hill Slope)) • X: log value of compound concentration; and Y: inhibition rate (% inh)
(§22) 3.4 Validation of Results
(§23) Data were exported from Envision and analyzed manually. The ratios were converted to inhibition rates and IC50 was calculated by Prism GraphPad 6.0 from the inhibition rates. IC50 was calculated again by the ratios to verify accuracy of the results.

The next assay has as its target T6, FGFR2 (Homo sapiens, UniProt P21802).
T6 construct: purchased Carna 08-134
Described as above. The note with it: ATP 50 μM, substrate TK 1 μM. The protocol:
as §2, §3, §4, §5, §6, §7, §8, §9, §10, §11, §12, §13, §14, §15, §16, §17, §18, §19, §20, §21, §22, §23

Another assay concerns the target T7, FGFR3 (Homo sapiens, UniProt P22607).
T7 construct: purchased Carna 08-135
The description is as above. The note with it: ATP 50 μM, substrate TK 1 μM. On the procedure: as §2, §3, §4, §5, §6, §7, §8, §9, §10, §11, §12, §13, §14, §15, §16, §17, §18, §19, §20, §21, §22, §23

T6 sequence (P21802 22-821): as the sequence (P21802 22-821 V564F) above, with F543V counted along it
T7 sequence (P22607 23-806): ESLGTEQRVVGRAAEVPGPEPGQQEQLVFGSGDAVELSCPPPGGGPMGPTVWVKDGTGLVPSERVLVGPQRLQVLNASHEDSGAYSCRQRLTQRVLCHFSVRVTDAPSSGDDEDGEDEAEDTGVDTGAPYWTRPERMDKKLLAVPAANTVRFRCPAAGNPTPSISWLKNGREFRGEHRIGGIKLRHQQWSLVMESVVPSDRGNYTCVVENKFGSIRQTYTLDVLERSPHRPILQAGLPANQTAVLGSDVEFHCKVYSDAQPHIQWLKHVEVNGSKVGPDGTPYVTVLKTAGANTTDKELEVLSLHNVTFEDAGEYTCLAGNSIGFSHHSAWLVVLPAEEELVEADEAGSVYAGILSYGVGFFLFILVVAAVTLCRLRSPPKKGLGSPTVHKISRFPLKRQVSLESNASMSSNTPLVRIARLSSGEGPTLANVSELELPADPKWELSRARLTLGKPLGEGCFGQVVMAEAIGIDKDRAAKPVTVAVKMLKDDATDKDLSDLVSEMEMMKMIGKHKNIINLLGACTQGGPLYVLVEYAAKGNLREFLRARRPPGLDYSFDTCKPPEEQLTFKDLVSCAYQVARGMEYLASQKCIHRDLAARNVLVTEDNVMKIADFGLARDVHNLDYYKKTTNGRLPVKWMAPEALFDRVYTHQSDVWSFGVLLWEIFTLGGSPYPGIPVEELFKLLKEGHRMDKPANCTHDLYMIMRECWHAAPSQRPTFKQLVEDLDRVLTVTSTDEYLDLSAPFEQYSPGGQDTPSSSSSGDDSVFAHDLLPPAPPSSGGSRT
T1 sequence (P11362 22-822 V561M): as the sequence (P11362 22-822) above, with V540M counted along it

Regarding `CC(Oc1ccc2[nH]nc(-c3nc4c([nH]3)CN(C(=O)N3CCN(C)CC3)C4)c2c1)c1c(Cl)cncc1Cl` (centres unmarked) [Compound 1, (2-(5-(1-(3,5-dichloropyridin-4-yl)ethoxy)-1H-indazol-3-yl)-4,6-dihydropyrrolo[3,4-d]imidazol-5(1H)-yl)(4-methylpiperazin-1-yl)ketone], the IC50 (in general, the point on the concentration scale where inhibition reaches its midpoint) is 0.26 nM at FGFR1 V561M; 0.34 nM against FGFR2 V564F; 0.34 nM against FGFR3 V555M; 1 nM against VEGFR2; 2.7 nM against FGFR1; 2.9 nM against FGFR2. On FGFR3, this compound showed an IC50 of 4.1 nM.
Take `CC(Oc1ccc2[nH]nc(-c3nc4c([nH]3)CN(C(=O)N3CCN(C)CC3)CC4)c2c1)c1c(Cl)cncc1Cl` (centres unmarked) [Compound 5, (2-(5-(1-(3,5-dichloropyridin-4-yl)ethoxy)-1H-indazol-3-yl)-3,4,6,7-tetrahydro-5H-imidazo[4,5-c]pyridin-5-yl)(4-methylpiperazin-1-yl)ketone]: the IC50 turned out to be 0.58 nM against FGFR1 V561M; 0.36 nM on FGFR2 V564F; 0.23 nM on FGFR3 V555M; 0.75 nM against VEGFR2; 1.8 nM on FGFR1; 2.1 nM against FGFR2. Moreover, the IC50 against FGFR3 was 3.8 nM.
`CC(Oc1ccc2[nH]nc(-c3nc4c([nH]3)CN(C(=O)N3CCOCC3)C4)c2c1)c1c(Cl)cncc1Cl` (centres unmarked) [Compound 8, (2-(5-(1-(3,5-dichloropyridin-4-yl)ethoxy)-1H-indazol-3-yl)-4,6-dihydropyrrolo[3,4-d]imidazol-5(1H)-yl)(morpholinyl)ketone]: the IC50 against FGFR1 V561M amounted to 0.33 nM; on FGFR2 V564F, 0.36 nM; against FGFR3 V555M, 0.45 nM; against VEGFR2, 2.1 nM; against FGFR1, 4.1 nM; on FGFR2, 2.8 nM. In addition, on FGFR3, the IC50 is 4.5 nM.
As to `CC(Oc1ccc2[nH]nc(-c3nc4c([nH]3)CN(C(=O)N3CC[C@H](O)C3)C4)c2c1)c1c(Cl)cncc1Cl` (stereo partly drawn) [Compound 10, (2-(5-(1-(3,5-dichloropyridin-4-yl)ethoxy)-1H-indazol-3-yl)-4,6-dihydropyrrolo[3,4-d]imidazol-5(1H)-yl)((S)-3-hydroxypyrrolidin-1-yl)ketone], the IC50 on FGFR1 V561M was determined as 0.2 nM; on FGFR2 V564F it was 0.33 nM; at FGFR3 V555M it was 0.35 nM; against VEGFR2, 2.4 nM; against FGFR1, 3.1 nM; on FGFR2, 2.2 nM. The compound also yielded an IC50 against FGFR3 of 3.4 nM.
In the case of `CC(Oc1ccc2[nH]nc(-c3nc4c([nH]3)CN(C)C4)c2c1)c1c(Cl)cncc1Cl` (centres unmarked) [Compound 11, 5-(1-(3,5-dichloropyridin-4-yl)ethoxy)-3-(5-methyl-1,4,5,6-tetrahydropyrrolo[3,4-d]imidazol-2-yl)-1H-indazole], the IC50 is 0.46 nM at FGFR1 V561M; 1.3 nM against FGFR2 V564F; 1.1 nM at FGFR3 V555M; 25.6 nM on VEGFR2; 1.7 nM against FGFR1; 0.95 nM against FGFR2. The IC50 against FGFR3 was 0.6 nM.
For `C[C@@H](Oc1ccc2[nH]nc(-c3nc4c([nH]3)CN(C(=O)CN3CC(F)C3)C4)c2c1)c1c(Cl)cncc1Cl` [Compound 53, (R)-1-(2-(5-(1-(3,5-dichloropyridin-4-yl)ethoxy)-1H-indazol-3-yl)-4,6-dihydropyrrolo[3,4-d]imidazol-5(1H)-yl)-2-(3-fluoroazetidin-1-yl)ethan-1-one], the IC50 on FGFR1 V561M is 6.4 nM; on FGFR2 V564F it was 0.82 nM; against FGFR3 V555M, 1.9 nM; on VEGFR2, 45.5 nM.
The corresponding values for `C[C@@H](Oc1ccc2[nH]nc(-c3nc4c([nH]3)CN(C(=O)OCCN(C)C)C4)c2c1)c1c(Cl)cncc1Cl` [Compound 54, 2-(dimethylamino)ethyl(R)-2-(5-(1-(3,5-dichloropyridin-4-yl)ethoxy)-1H-indazol-3-yl)-4,6-dihydropyrrolo[3,4-d]imidazole-5(1H)-carboxylate] are 0.55 nM, 0.15 nM, 0.11 nM and 3.3 nM.
The corresponding values for `C[C@@H](Oc1ccc2[nH]nc(-c3nc4c([nH]3)CN(C(=O)OC3CCN(C)C3)C4)c2c1)c1c(Cl)cncc1Cl` (stereo partly drawn) [Compound 55, 1-Methylpyrrolidin-3-yl 2-(5-((R)-1-(3,5-dichloropyridin-4-yl)ethoxy)-1H-indazol-3-yl)-4,6-dihydropyrrolo[3,4-d]imidazole-5(1H)-carboxylate] are 5.1 nM, 0.34 nM, 0.87 nM and 13.4 nM.
